Results taken from the kinase profiling compilation of Christmann-Franck et al. (2016).

Key:
Test in all cases: radiometric filter-binding kinase assay, Kinase HotSpot
Details in all cases: compound 0.5 µM; ATP 10 µM
ABL2 (human) = ABL2 (human) (UniProt P42684)
PKN2 (human) = PKN2 (human) (UniProt Q16513)
NUAK1 (human) = NUAK1 (human) (UniProt O60285)
TEK (human) = TEK (human) (UniProt Q02763)
PRKCI (human) = PRKCI (human) (UniProt P41743)
PDGFRB (human) = PDGFRB (human) (UniProt P09619)
PRKCA (human) = PRKCA (human) (UniProt P17252)
STK11 (human) = STK11 (human) (UniProt Q15831)
MAP4K2 (human) = MAP4K2 (human) (UniProt Q12851)
PHKG2 (human) = PHKG2 (human) (UniProt P15735)
CAMK1D (human) = CAMK1D (human) (UniProt Q8IU85)
PTK6 (human) = PTK6 (human) (UniProt Q13882)
CDK1 CCNB1 (human) = CDK1 CCNB1 (human) (UniProt P06493+P14635)
PRKCZ (human) = PRKCZ (human) (UniProt Q05513)
FRK (human) = FRK (human) (UniProt P42685)
CHEK2 (human) = CHEK2 (human) (UniProt O96017)
PAK3 (human) = PAK3 (human) (UniProt O75914)
LRRK2 (human) = LRRK2 (human) (UniProt Q5S007)
PAK4 (human) = PAK4 (human) (UniProt O96013)
DAPK3 (human) = DAPK3 (human) (UniProt O43293)
CAMK4 (human) = CAMK4 (human) (UniProt Q16566)
CDK9 CCNT1 (human) = CDK9 CCNT1 (human) (UniProt P50750+O60563)
MINK1 (human) = MINK1 (human) (UniProt Q8N4C8)
MAP3K11 (human) = MAP3K11 (human) (UniProt Q16584)
FGR (human) = FGR (human) (UniProt P09769)
MAP2K2 (human) = MAP2K2 (human) (UniProt P36507)
MARK2 (human) = MARK2 (human) (UniProt Q7KZI7)
TTK (human) = TTK (human) (UniProt P33981)
DYRK1A (human) = DYRK1A (human) (UniProt Q13627)
CSNK2A2 (human) = CSNK2A2 (human) (UniProt P19784)
DYRK4 (human) = DYRK4 (human) (UniProt Q9NR20)
ACVRL1 (human) = ACVRL1 (human) (UniProt P37023)
DYRK1B (human) = DYRK1B (human) (UniProt Q9Y463)
HCK (human) = HCK (human) (UniProt P08631)
MAP3K3 (human) = MAP3K3 (human) (UniProt Q99759)
OXSR1 (human) = OXSR1 (human) (UniProt O95747)
JAK3 JH1 JH2 (human) = JAK3 JH1 JH2 (human) (UniProt P52333)
KDR (human) = KDR (human) (UniProt P35968)
CHEK1 (human) = CHEK1 (human) (UniProt O14757)
VRK1 (human) = VRK1 (human) (UniProt Q99986)
MARK1 (human) = MARK1 (human) (UniProt Q9P0L2)
PDPK1 (human) = PDPK1 (human) (UniProt O15530)
Chain of PDPK1 (human) (O15530 whole entry, looked up): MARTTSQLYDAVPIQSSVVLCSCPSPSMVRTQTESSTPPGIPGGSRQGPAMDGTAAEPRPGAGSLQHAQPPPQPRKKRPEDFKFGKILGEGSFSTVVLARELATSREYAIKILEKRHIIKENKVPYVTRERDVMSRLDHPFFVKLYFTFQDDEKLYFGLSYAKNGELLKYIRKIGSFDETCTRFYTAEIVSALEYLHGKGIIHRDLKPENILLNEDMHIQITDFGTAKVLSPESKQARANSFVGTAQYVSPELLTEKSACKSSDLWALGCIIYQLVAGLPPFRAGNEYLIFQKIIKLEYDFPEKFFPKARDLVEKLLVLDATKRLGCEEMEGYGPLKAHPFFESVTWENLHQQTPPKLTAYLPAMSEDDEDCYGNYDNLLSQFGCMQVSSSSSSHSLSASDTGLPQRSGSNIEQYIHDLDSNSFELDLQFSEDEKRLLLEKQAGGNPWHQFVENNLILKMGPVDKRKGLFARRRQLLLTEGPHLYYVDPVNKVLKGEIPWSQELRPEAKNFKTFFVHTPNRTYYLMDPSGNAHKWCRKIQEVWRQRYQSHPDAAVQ

Chain of PTK6 (human) (Q13882 whole entry, looked up): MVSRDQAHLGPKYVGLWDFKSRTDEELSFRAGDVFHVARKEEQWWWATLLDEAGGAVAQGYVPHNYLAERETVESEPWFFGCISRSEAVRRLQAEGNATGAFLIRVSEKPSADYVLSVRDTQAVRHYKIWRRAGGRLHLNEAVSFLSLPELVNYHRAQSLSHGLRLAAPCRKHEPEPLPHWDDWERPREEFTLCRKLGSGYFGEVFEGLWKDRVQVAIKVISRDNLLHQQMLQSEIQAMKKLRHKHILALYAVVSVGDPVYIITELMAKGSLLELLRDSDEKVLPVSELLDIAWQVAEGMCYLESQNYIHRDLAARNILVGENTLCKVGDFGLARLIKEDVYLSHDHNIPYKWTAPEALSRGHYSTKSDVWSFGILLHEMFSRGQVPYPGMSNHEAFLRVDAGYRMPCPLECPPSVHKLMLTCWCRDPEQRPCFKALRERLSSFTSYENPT
Chain of CSNK2A2 (human) (P19784 whole entry, looked up): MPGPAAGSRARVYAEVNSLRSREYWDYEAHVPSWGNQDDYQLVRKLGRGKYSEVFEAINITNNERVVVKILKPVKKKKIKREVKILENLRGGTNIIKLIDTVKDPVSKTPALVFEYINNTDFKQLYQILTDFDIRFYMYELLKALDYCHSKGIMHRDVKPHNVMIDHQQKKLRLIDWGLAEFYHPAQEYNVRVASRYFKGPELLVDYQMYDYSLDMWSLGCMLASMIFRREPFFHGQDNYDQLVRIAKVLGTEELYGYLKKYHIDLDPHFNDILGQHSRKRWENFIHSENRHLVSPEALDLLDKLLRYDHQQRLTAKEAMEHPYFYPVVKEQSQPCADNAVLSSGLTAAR
Chain of NUAK1 (human) (O60285 whole entry, looked up): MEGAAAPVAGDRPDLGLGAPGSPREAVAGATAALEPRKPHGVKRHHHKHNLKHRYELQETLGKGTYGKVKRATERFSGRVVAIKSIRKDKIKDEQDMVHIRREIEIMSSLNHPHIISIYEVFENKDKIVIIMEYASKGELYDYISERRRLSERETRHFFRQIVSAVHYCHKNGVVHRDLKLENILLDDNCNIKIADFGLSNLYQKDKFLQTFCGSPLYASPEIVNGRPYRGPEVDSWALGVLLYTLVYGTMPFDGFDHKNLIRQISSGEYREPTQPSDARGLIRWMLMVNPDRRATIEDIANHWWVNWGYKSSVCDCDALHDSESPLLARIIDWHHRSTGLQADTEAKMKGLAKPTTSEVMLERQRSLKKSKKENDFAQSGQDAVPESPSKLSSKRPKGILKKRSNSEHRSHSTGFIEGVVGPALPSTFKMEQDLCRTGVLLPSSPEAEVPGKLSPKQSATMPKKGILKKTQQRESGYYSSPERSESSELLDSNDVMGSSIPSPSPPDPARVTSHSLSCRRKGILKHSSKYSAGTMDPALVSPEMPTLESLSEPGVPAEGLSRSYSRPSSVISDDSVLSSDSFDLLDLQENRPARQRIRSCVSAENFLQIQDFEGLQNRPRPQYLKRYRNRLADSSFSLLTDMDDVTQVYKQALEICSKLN
Chain of PRKCI (human) (P41743 whole entry, looked up): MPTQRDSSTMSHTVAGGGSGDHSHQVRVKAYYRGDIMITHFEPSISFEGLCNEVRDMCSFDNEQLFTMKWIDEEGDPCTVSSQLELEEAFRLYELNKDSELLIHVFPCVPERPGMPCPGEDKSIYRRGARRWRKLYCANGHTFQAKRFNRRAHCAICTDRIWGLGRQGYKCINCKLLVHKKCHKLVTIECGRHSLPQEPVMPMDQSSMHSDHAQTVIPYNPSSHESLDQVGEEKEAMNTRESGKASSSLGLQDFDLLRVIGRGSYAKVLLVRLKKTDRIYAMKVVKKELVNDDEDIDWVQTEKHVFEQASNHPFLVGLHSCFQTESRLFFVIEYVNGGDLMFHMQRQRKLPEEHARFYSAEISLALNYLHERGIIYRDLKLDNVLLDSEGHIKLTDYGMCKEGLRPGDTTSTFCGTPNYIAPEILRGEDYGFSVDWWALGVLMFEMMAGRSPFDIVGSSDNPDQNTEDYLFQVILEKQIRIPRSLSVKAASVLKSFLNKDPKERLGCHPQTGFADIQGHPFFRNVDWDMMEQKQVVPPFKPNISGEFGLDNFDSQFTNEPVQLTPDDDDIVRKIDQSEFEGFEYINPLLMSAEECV
Chain of MAP3K3 (human) (Q99759 whole entry, looked up): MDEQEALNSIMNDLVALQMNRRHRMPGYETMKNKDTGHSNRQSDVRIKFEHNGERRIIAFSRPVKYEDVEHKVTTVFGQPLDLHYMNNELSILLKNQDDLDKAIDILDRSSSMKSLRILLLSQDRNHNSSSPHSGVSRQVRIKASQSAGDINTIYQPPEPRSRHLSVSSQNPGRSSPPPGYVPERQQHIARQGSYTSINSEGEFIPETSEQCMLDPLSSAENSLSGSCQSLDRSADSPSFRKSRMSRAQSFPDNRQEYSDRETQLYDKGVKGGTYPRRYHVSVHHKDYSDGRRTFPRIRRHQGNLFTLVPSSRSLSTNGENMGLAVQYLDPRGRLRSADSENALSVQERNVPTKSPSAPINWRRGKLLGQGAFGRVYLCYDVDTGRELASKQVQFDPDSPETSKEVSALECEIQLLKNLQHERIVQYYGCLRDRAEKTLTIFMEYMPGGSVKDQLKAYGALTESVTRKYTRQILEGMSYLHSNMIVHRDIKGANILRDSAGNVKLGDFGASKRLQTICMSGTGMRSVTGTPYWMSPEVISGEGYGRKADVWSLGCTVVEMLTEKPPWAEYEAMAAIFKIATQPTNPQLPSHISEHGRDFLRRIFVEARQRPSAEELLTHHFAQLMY
Chain of PDGFRB (human) (P09619 whole entry, looked up): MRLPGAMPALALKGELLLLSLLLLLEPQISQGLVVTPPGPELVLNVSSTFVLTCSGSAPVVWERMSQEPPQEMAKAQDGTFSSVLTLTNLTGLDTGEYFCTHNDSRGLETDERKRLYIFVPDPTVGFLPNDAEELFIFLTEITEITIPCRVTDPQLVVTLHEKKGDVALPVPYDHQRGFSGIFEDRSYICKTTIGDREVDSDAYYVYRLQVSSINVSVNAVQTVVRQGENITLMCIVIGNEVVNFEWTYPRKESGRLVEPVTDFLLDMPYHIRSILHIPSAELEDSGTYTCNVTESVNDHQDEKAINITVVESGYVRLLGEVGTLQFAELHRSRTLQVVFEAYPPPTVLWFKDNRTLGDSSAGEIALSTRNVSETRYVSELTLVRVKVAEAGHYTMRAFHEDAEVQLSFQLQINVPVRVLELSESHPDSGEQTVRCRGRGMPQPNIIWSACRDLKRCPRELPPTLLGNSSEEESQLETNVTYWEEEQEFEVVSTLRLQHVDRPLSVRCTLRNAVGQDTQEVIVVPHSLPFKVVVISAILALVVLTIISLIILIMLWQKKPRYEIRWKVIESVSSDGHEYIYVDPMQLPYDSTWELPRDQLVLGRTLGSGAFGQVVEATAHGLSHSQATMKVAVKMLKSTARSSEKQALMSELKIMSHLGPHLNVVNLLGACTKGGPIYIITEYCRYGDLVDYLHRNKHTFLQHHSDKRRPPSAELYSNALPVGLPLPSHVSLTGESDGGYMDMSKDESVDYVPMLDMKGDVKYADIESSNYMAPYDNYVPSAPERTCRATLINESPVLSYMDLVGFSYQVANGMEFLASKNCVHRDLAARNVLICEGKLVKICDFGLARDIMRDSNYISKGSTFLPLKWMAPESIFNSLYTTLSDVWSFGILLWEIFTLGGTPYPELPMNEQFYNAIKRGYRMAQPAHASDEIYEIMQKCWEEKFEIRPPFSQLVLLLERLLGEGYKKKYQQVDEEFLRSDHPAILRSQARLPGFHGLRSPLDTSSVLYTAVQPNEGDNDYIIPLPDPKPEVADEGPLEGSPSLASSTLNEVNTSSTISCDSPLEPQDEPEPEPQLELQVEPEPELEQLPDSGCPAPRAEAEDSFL
Chain of VRK1 (human) (Q99986 whole entry, looked up): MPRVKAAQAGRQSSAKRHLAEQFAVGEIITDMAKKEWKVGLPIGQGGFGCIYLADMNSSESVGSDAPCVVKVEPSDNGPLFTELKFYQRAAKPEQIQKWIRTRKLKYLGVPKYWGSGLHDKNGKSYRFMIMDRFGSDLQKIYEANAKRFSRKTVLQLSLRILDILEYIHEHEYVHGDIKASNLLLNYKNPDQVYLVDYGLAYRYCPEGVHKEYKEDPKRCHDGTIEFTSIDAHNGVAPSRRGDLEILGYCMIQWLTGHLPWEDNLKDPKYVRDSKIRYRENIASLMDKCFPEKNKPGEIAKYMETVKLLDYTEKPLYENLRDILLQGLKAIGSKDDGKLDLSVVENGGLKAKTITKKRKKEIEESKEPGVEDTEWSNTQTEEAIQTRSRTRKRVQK

SMILES: Cn1cnc2cc3c(Nc4cccc(Br)c4)ncnc3cc21
- residual activity (ABL2 (human)): 37%
- residual activity (PKN2 (human)): 85.7%
- residual activity (NUAK1 (human)): 90.5%
- residual activity (TEK (human)): 98.9%
- residual activity (PRKCI (human)): 100%
- residual activity (PDGFRB (human)): 99.7%
- residual activity (PRKCA (human)): 79%
- residual activity (STK11 (human)): 91.1%
- residual activity (MAP4K2 (human)): 90.4%
- residual activity (PHKG2 (human)): 103%
- residual activity (CAMK1D (human)): 104%
- residual activity (PTK6 (human)): 54%
- residual activity (CDK1 CCNB1 (human)): 97.9%
- residual activity (PRKCZ (human)): 102%
- residual activity (FRK (human)): 93.6%
- residual activity (CHEK2 (human)): 101%
- residual activity (PAK3 (human)): 98.5%
- residual activity (LRRK2 (human)): 68.2%
- residual activity (PAK4 (human)): 105%
- residual activity (DAPK3 (human)): 93.7%
- residual activity (CAMK4 (human)): 98.6%
- residual activity (CDK9 CCNT1 (human)): 88.5%
- residual activity (MINK1 (human)): 82.1%
- residual activity (MAP3K11 (human)): 94.8%
- residual activity (FGR (human)): 55.8%
- residual activity (MAP2K2 (human)): 101%
- residual activity (MARK2 (human)): 96.6%
- residual activity (TTK (human)): 95.7%
- residual activity (DYRK1A (human)): 106%
- residual activity (CSNK2A2 (human)): 91.7%
- residual activity (DYRK4 (human)): 97.5%
- residual activity (ACVRL1 (human)): 102%
- residual activity (DYRK1B (human)): 98.1%
- residual activity (HCK (human)): 70.4%
- residual activity (MAP3K3 (human)): 109%
- residual activity (OXSR1 (human)): 94.6%
- residual activity (JAK3 JH1 JH2 (human)): 106%
- residual activity (KDR (human)): 71.7%
- residual activity (CHEK1 (human)): 113%
- residual activity (VRK1 (human)): 100%
- residual activity (MARK1 (human)): 94.3%
- residual activity (PDPK1 (human)): 98.8%

SMILES: Oc1ccc(Nc2nc(-c3ccc(Cl)cc3)cs2)cc1
- residual activity (ABL2 (human)): 93.4%
- residual activity (PKN2 (human)): 93.8%
- residual activity (NUAK1 (human)): 90.7%
- residual activity (TEK (human)): 104%
- residual activity (PRKCI (human)): 99.5%
- residual activity (PDGFRB (human)): 107%
- residual activity (PRKCA (human)): 113%
- residual activity (STK11 (human)): 91.1%
- residual activity (MAP4K2 (human)): 103%
- residual activity (PHKG2 (human)): 99.9%
- residual activity (CAMK1D (human)): 103%
- residual activity (PTK6 (human)): 87.4%
- residual activity (CDK1 CCNB1 (human)): 109%
- residual activity (PRKCZ (human)): 105%
- residual activity (FRK (human)): 106%
- residual activity (CHEK2 (human)): 97.9%
- residual activity (PAK3 (human)): 124%
- residual activity (LRRK2 (human)): 98.7%
- residual activity (PAK4 (human)): 102%
- residual activity (DAPK3 (human)): 103%
- residual activity (CAMK4 (human)): 99.7%
- residual activity (CDK9 CCNT1 (human)): 87.8%
- residual activity (MINK1 (human)): 103%
- residual activity (MAP3K11 (human)): 95.3%
- residual activity (FGR (human)): 96.4%
- residual activity (MAP2K2 (human)): 109%
- residual activity (MARK2 (human)): 102%
- residual activity (TTK (human)): 87.6%
- residual activity (DYRK1A (human)): 96.6%
- residual activity (CSNK2A2 (human)): 96.9%
- residual activity (DYRK4 (human)): 95.9%
- residual activity (ACVRL1 (human)): 103%
- residual activity (DYRK1B (human)): 106%
- residual activity (HCK (human)): 96.1%
- residual activity (MAP3K3 (human)): 101%
- residual activity (OXSR1 (human)): 88.8%
- residual activity (JAK3 JH1 JH2 (human)): 92.2%
- residual activity (KDR (human)): 101%
- residual activity (CHEK1 (human)): 99.4%
- residual activity (VRK1 (human)): 99.8%
- residual activity (MARK1 (human)): 93.7%
- residual activity (PDPK1 (human)): 101%

SMILES: Nc1nccc(-c2c(-c3ccc(F)cc3)ncn2C2CCNCC2)n1
- residual activity (ABL2 (human)): 95.1%
- residual activity (PKN2 (human)): 97.1%
- residual activity (NUAK1 (human)): 98.4%
- residual activity (TEK (human)): 101%
- residual activity (PRKCI (human)): 98.5%
- residual activity (PDGFRB (human)): 98.7%
- residual activity (PRKCA (human)): 89.1%
- residual activity (STK11 (human)): 89.1%
- residual activity (MAP4K2 (human)): 102%
- residual activity (PHKG2 (human)): 104%
- residual activity (CAMK1D (human)): 103%
- residual activity (PTK6 (human)): 73.4%
- residual activity (CDK1 CCNB1 (human)): 96.8%
- residual activity (PRKCZ (human)): 106%
- residual activity (FRK (human)): 95.4%
- residual activity (CHEK2 (human)): 101%
- residual activity (PAK3 (human)): 105%
- residual activity (LRRK2 (human)): 99.9%
- residual activity (PAK4 (human)): 95.1%
- residual activity (DAPK3 (human)): 96.5%
- residual activity (CAMK4 (human)): 103%
- residual activity (CDK9 CCNT1 (human)): 87.1%
- residual activity (MINK1 (human)): 96.1%
- residual activity (MAP3K11 (human)): 96.3%
- residual activity (FGR (human)): 95.9%
- residual activity (MAP2K2 (human)): 105%
- residual activity (MARK2 (human)): 97%
- residual activity (TTK (human)): 107%
- residual activity (DYRK1A (human)): 96.3%
- residual activity (CSNK2A2 (human)): 92.2%
- residual activity (DYRK4 (human)): 99.3%
- residual activity (ACVRL1 (human)): 95.6%
- residual activity (DYRK1B (human)): 100%
- residual activity (HCK (human)): 95.5%
- residual activity (MAP3K3 (human)): 101%
- residual activity (OXSR1 (human)): 101%
- residual activity (JAK3 JH1 JH2 (human)): 96.9%
- residual activity (KDR (human)): 102%
- residual activity (CHEK1 (human)): 99.8%
- residual activity (VRK1 (human)): 83.4%
- residual activity (MARK1 (human)): 97.9%
- residual activity (PDPK1 (human)): 103%
